Results taken from ChEMBL document CHEMBL1127117 (Bioorg Med Chem Lett, 1993).
The source made the active and inactive calls. The rule behind the calls is not given here.

Test system: Mus musculus
Assay: Compound was tested for inhibitory activity in oral mouse cholesterol biosynthesis assay at the dose of 24 mg/Kg; NA means not active
Type: functional, organism-based

Question: For C=C(CCC12OC(C(=O)OCCC(C)C)C(O)(C(=O)O)C(C(=O)OCc3ccccc3)(O1)[C@H](OC(=O)/C=C/[C@@H](C)C[C@@H](C)CC)[C@H]2O)[C@@H](OC(C)=O)[C@H](C)Cc1ccccc1 (some centres undefined), which inhibition is on record?
Answer: The inhibition was “inactive”.

Question: C=C(CCC12OC(C(=O)OCCC(C)C)C(O)(C(=O)OCC(=O)OC(C)(C)C)C(C(=O)O)(O1)[C@H](OC(=O)/C=C/[C@@H](C)C[C@@H](C)CC)[C@H]2O)[C@@H](OC(C)=O)[C@H](C)Cc1ccccc1 (some centres undefined) was tested. Which inhibition did it give?
Answer: Its inhibition is “inactive”.

Question: How did the inhibition turn out when C=CCOC(=O)C12OC(CCC(=C)[C@@H](OC(C)=O)[C@H](C)Cc3ccccc3)(OC(C(=O)OCCC(C)C)C1(O)C(=O)O)[C@H](O)[C@H]2OC(=O)/C=C/[C@@H](C)C[C@@H](C)CC (some centres undefined) was run?
Answer: The inhibition was “inactive”.

Question: With C=C(CCC12OC(C(=O)OCCC(C)C)C(O)(C(=O)O)C(C(=O)OC)(O1)[C@H](OC(=O)/C=C/[C@@H](C)C[C@@H](C)CC)[C@H]2O)[C@@H](OC(C)=O)[C@H](C)Cc1ccccc1 (some centres undefined) as the molecule, how does the inhibition read?
Answer: Its inhibition is “inactive”.

Test system: Mus musculus
Assay: Compound was tested for inhibitory activity in oral mouse cholesterol biosynthesis assay at the dose of 40 mg/Kg
Type: functional

Question: C=C(CCC12OC(C(=O)OCCC(C)C)C(O)(C(=O)O)C(C(=O)O)(O1)[C@H](OC(=O)/C=C/[C@@H](C)C[C@@H](C)CC)[C@H]2O)[C@@H](OC(C)=O)[C@H](C)Cc1ccccc1 (some centres undefined) was tested. Which inhibition in vivo at 40 mg/kg did it give?
Answer: Its inhibition in vivo at 40 mg/kg is 61%.

Test system: Mus musculus
Assay: Compound was tested for inhibitory activity in oral mouse cholesterol biosynthesis assay at the dose of 6 mg/Kg
Type: functional

Question: C=C(CCC12OC(C(=O)OCCC(C)C)C(O)(C(=O)O)C(C(=O)OCOC(C)=O)(O1)[C@H](OC(=O)/C=C/[C@@H](C)C[C@@H](C)CC)[C@H]2O)[C@@H](OC(C)=O)[C@H](C)Cc1ccccc1 (some centres undefined) was tested. Which inhibition in vivo at 6 mg/kg did it give?
Answer: Its inhibition in vivo at 6 mg/kg is 13%.

Test system: Mus musculus
Assay: Compound was tested for inhibitory activity in oral mouse cholesterol biosynthesis assay at the dose of 24 mg/Kg
Type: functional

Question: How did the inhibition in vivo at 24 mg/kg turn out when C=C(CCC12OC(C(=O)OCCC(C)C)C(O)(C(=O)OCC(=O)OC)C(C(=O)O)(O1)[C@H](OC(=O)/C=C/[C@@H](C)C[C@@H](C)CC)[C@H]2O)[C@@H](OC(C)=O)[C@H](C)Cc1ccccc1 (some centres undefined) was run?
Answer: Its inhibition in vivo at 24 mg/kg is 43%.

Question: How did the inhibition in vivo at 24 mg/kg turn out when C=C(CCC12OC(C(=O)OCCC(C)C)C(O)(C(=O)OCC(=O)N(C)C)C(C(=O)O)(O1)[C@H](OC(=O)/C=C/[C@@H](C)C[C@@H](C)CC)[C@H]2O)[C@@H](OC(C)=O)[C@H](C)Cc1ccccc1 (some centres undefined) was run?
Answer: The inhibition in vivo at 24 mg/kg was 12%.

Question: Which inhibition in vivo at 24 mg/kg does the source give for C=C(CCC12OC(C(=O)OCCC(C)C)C(O)(C(=O)OCCCCCCCC)C(C(=O)O)(O1)[C@H](OC(=O)/C=C/[C@@H](C)C[C@@H](C)CC)[C@H]2O)[C@@H](OC(C)=O)[C@H](C)Cc1ccccc1 (some centres undefined) here?
Answer: Its inhibition in vivo at 24 mg/kg is 5%.

Question: With C=C(CCC12OC(C(=O)OCCC(C)C)C(O)(C(=O)OCCOC)C(C(=O)O)(O1)[C@H](OC(=O)/C=C/[C@@H](C)C[C@@H](C)CC)[C@H]2O)[C@@H](OC(C)=O)[C@H](C)Cc1ccccc1 (some centres undefined) as the molecule, how does the inhibition in vivo at 24 mg/kg read?
Answer: The inhibition in vivo at 24 mg/kg was 55%.

Question: For C=C(CCC12OC(C(=O)OCCC(C)C)C(O)(C(=O)OCc3ccccc3)C(C(=O)O)(O1)[C@H](OC(=O)/C=C/[C@@H](C)C[C@@H](C)CC)[C@H]2O)[C@@H](OC(C)=O)[C@H](C)Cc1ccccc1 (some centres undefined), which inhibition in vivo at 24 mg/kg is on record?
Answer: The inhibition in vivo at 24 mg/kg was 50%.

Question: For C=C(CCC12OC(C(=O)OCCC(C)C)C(O)(C(=O)OCC(=O)c3ccc(Br)cc3)C(C(=O)O)(O1)[C@H](OC(=O)/C=C/[C@@H](C)C[C@@H](C)CC)[C@H]2O)[C@@H](OC(C)=O)[C@H](C)Cc1ccccc1 (some centres undefined), which inhibition in vivo at 24 mg/kg is on record?
Answer: The inhibition in vivo at 24 mg/kg was 7%.

Question: Which inhibition in vivo at 24 mg/kg does the source give for C=C(CCC12OC(C(=O)OCCC(C)C)C(O)(C(=O)OCC)C(C(=O)O)(O1)[C@H](OC(=O)/C=C/[C@@H](C)C[C@@H](C)CC)[C@H]2O)[C@@H](OC(C)=O)[C@H](C)Cc1ccccc1 (some centres undefined) here?
Answer: The inhibition in vivo at 24 mg/kg was 59%.

Question: C=CCOC(=O)C1(O)C(C(=O)OCCC(C)C)OC2(CCC(=C)[C@@H](OC(C)=O)[C@H](C)Cc3ccccc3)OC1(C(=O)O)[C@H](OC(=O)/C=C/[C@@H](C)C[C@@H](C)CC)[C@H]2O (some centres undefined) was tested. Which inhibition in vivo at 24 mg/kg did it give?
Answer: The inhibition in vivo at 24 mg/kg was 38%.

Question: How did the inhibition in vivo at 24 mg/kg turn out when C=C(CCC12OC(C(=O)OCCC(C)C)C(O)(C(=O)OCC(=O)N(CC)CC)C(C(=O)O)(O1)[C@H](OC(=O)/C=C/[C@@H](C)C[C@@H](C)CC)[C@H]2O)[C@@H](OC(C)=O)[C@H](C)Cc1ccccc1 (some centres undefined) was run?
Answer: Its inhibition in vivo at 24 mg/kg is 15%.

Species on record: Mus musculus
Assay: Compound was tested for inhibitory activity in oral mouse cholesterol biosynthesis assay
Type: functional

Question: For C=C(CCC12OC(C(=O)O)C(O)(C(=O)O)C(C(=O)O)(O1)[C@H](OC(=O)/C=C/[C@@H](C)C[C@@H](C)CC)[C@H]2O)[C@@H](OC(C)=O)[C@H](C)Cc1ccccc1 (some centres undefined) [ZARAGOZIC ACID A], which ED50 is on record?
Answer: The ED50 was 100 mg/kg.

Question: Which ED50 does the source give for C=C(CCC12OC(C(=O)OCCC(C)C)C(O)(C(=O)OCOC(C)=O)C(C(=O)O)(O1)[C@H](OC(=O)/C=C/[C@@H](C)C[C@@H](C)CC)[C@H]2O)[C@@H](OC(C)=O)[C@H](C)Cc1ccccc1 (some centres undefined) here?
Answer: Its ED50 is 6 mg/kg.

Question: How did the ED50 turn out when C=C(CCC12OC(C(=O)OCCC(C)C)C(O)(C(=O)OC)C(C(=O)O)(O1)[C@H](OC(=O)/C=C/[C@@H](C)C[C@@H](C)CC)[C@H]2O)[C@@H](OC(C)=O)[C@H](C)Cc1ccccc1 (some centres undefined) was run?
Answer: Its ED50 is 20 mg/kg.

Question: For C=C(CCC12OC(C(=O)OCCC(C)C)C(O)(C(=O)OCOC(=O)C(C)(C)C)C(C(=O)O)(O1)[C@H](OC(=O)/C=C/[C@@H](C)C[C@@H](C)CC)[C@H]2O)[C@@H](OC(C)=O)[C@H](C)Cc1ccccc1 (some centres undefined), which ED50 is on record?
Answer: The ED50 was 9 mg/kg.
